The values that follow come from ChEMBL document CHEMBL5724914, “Linking interpersonal differences in gut microbiota composition and drug biotransformation activity” (2024).

Data set [1] in a line: The drug is tested on WLS-027 corresponding to human gut metagenome with ENA study accession number: PRJEB37062 and ENA sample accession number: ERS12561744 for biotransformation under anaerobic condition. The drug concentrations were measured over 9 timepoints collected between 0 and 24 hours of incubation by liquid-chromatography-coupled mass spectrometry (LC–MS). The settings on record: 2 µM.

The conditions of data set [2]: human gut metagenome, 24 h, 2 µM.
The conditions of data set [3]: human gut metagenome, 24 h, 2 µM. The source holds these as a separate data set.
For data set [4] the following is noted: human gut metagenome, 24 h, 2 µM. This is another data set of the same source.
The conditions of data set [5]: human gut metagenome, 24 h, 2 µM. This is another data set of the same source.
The nature of data set [6]: The drug is tested on Z-005 corresponding to metagenome with ENA study accession number: PRJEB37062 and ENA sample accession number: ERS12561805 for biotransformation under anaerobic condition. The drug concentrations were measured over 9 timepoints collected between 0 and 24 hours of incubation by liquid-chromatography-coupled mass spectrometry (LC–MS). The settings on record: 2 µM.

Data set [7] in a line: The drug is tested on Z-008 corresponding to metagenome with ENA study accession number: PRJEB37062 and ENA sample accession number: ERS12561808 for biotransformation under anaerobic condition. The drug concentrations were measured over 9 timepoints collected between 0 and 24 hours of incubation by liquid-chromatography-coupled mass spectrometry (LC–MS). The settings on record: 2 µM.

Data set [8] can be described thus: The drug is tested on Z-001 corresponding to mouse gut metagenome with ENA study accession number: PRJEB37062 and ENA sample accession number: ERS12561801 for biotransformation under anaerobic condition. The drug concentrations were measured over 9 timepoints collected between 0 and 24 hours of incubation by liquid-chromatography-coupled mass spectrometry (LC–MS). The note with it: 2 µM.

The conditions of data set [9]: human gut metagenome, 24 h, 2 µM. The source holds these as a separate data set.
For data set [10] the following is noted: human gut metagenome, 24 h, 2 µM. The source holds these as a separate data set.
Data set [11] can be described thus: The drug is tested on Z-030 corresponding to mouse gut metagenome with ENA study accession number: PRJEB37062 and ENA sample accession number: ERS12561829 for biotransformation under anaerobic condition. The drug concentrations were measured over 9 timepoints collected between 0 and 24 hours of incubation by liquid-chromatography-coupled mass spectrometry (LC–MS). The note with it: 2 µM.

The conditions of data set [12]: human gut metagenome, 24 h, 2 µM. The source holds these as a separate data set.
The nature of data set [13]: The drug is tested on Z-027 corresponding to metagenome with ENA study accession number: PRJEB37062 and ENA sample accession number: ERS12561826 for biotransformation under anaerobic condition. The drug concentrations were measured over 9 timepoints collected between 0 and 24 hours of incubation by liquid-chromatography-coupled mass spectrometry (LC–MS). The note with it: 2 µM.

The nature of data set [14]: The drug is tested on Z-020 corresponding to rabbit gut metagenome with ENA study accession number: PRJEB37062 and ENA sample accession number: ERS12561819 for biotransformation under anaerobic condition. The drug concentrations were measured over 9 timepoints collected between 0 and 24 hours of incubation by liquid-chromatography-coupled mass spectrometry (LC–MS). The note with it: 2 µM.

Data set [15] is described as follows: The drug is tested on WLS-077 corresponding to human gut metagenome with ENA study accession number: PRJEB37062 and ENA sample accession number: ERS12561750 for biotransformation under anaerobic condition. The drug concentrations were measured over 9 timepoints collected between 0 and 24 hours of incubation by liquid-chromatography-coupled mass spectrometry (LC–MS). The note with it: 2 µM.

Data set [16] in a line: The drug is tested on Z-012 corresponding to metagenome with ENA study accession number: PRJEB37062 and ENA sample accession number: ERS12561812 for biotransformation under anaerobic condition. The drug concentrations were measured over 9 timepoints collected between 0 and 24 hours of incubation by liquid-chromatography-coupled mass spectrometry (LC–MS). The settings on record: 2 µM.

Data set [17] is described as follows: The drug is tested on Z-022 corresponding to mouse gut metagenome with ENA study accession number: PRJEB37062 and ENA sample accession number: ERS12561821 for biotransformation under anaerobic condition. The drug concentrations were measured over 9 timepoints collected between 0 and 24 hours of incubation by liquid-chromatography-coupled mass spectrometry (LC–MS). The settings on record: 2 µM.

The conditions of data set [18]: human gut metagenome, 24 h, 2 µM. This is another data set of the same source.
The conditions of data set [19]: human gut metagenome, 24 h, 2 µM. The source holds these as a separate data set.
The conditions of data set [20]: human gut metagenome, 24 h, 2 µM. This is another data set of the same source.
Note: call rule not given here.

Take `COc1cc(NC(C)CCCN)c2ncccc2c1.O=P(O)(O)O.O=P(O)(O)O` (stereo not given) [PRIMAQUINE PHOSPHATE]: the “Bacterial Biotransformation” value in data set [1], in [2], in data set [3], in data set [4], in data set [5] and in data set [6] was “Compound NOT metabolized” throughout. The “Bacterial Biotransformation” value in data set [7], in [8], in [9], in data set [10], in data set [11] and in data set [12] was “Compound NOT metabolized” each time. Besides, the “Bacterial Biotransformation” value in data set [13], in [14], in data set [15], in data set [16], in data set [17] and in data set [18] was “Compound NOT metabolized” each time. The “Bacterial Biotransformation” value in data set [19] and in [20] was “Compound metabolized” in each case.

Turning to `CC(NC(C)(C)C)C(=O)c1cccc(Cl)c1` (stereo not given) [BUPROPION], the “Bacterial Biotransformation” value in [1] was “Compound NOT metabolized”; in data set [2] it was “Compound NOT metabolized”; in [3], “Compound NOT metabolized”; in data set [4], “Compound NOT metabolized”; in data set [5], “Compound metabolized”; in [6], “Compound NOT metabolized”. In addition, the “Bacterial Biotransformation” value is reported as “Compound NOT metabolized” in data set [7]; “Compound NOT metabolized” in [8]; “Compound metabolized” in data set [9]; “Compound NOT metabolized” in data set [10]; “Compound NOT metabolized” in [11]; “Compound NOT metabolized” in data set [12]. Further, the “Bacterial Biotransformation” value in data set [13], in [14], in data set [15], in [16], in data set [17] and in [18] was “Compound NOT metabolized” in each case. The “Bacterial Biotransformation” value in [19] and in data set [20] was “Compound NOT metabolized” each time.

For the molecule `C[N+]12CCC(CC1)C(OC(=O)C(O)(c1ccccc1)c1ccccc1)C2.[Br-]` (stereo not given) [CLIDINIUM BROMIDE], the “Bacterial Biotransformation” value is given as “Compound NOT metabolized” in data set [1]; “Compound metabolized” in [2]; “Compound NOT metabolized” in data set [3]; “Compound NOT metabolized” in data set [4]; “Compound metabolized” in data set [5]; “Compound NOT metabolized” in data set [6]. Moreover, the “Bacterial Biotransformation” value in [7] is listed as “Compound NOT metabolized”; in data set [8], “Compound metabolized”; in data set [9], “Compound NOT metabolized”; in [10], “Compound NOT metabolized”; in [11], “Compound NOT metabolized”; in [12], “Compound metabolized”. Besides, the “Bacterial Biotransformation” value in data set [13] is given as “Compound NOT metabolized”; in [14], “Compound NOT metabolized”; in data set [15], “Compound NOT metabolized”; in data set [16], “Compound NOT metabolized”; in data set [17] it was “Compound NOT metabolized”; in data set [18] it was “Compound metabolized”. Moreover, the “Bacterial Biotransformation” value in [19] is listed as “Compound metabolized”; in [20], “Compound NOT metabolized”.

On to `CCCN1C[C@H](CSC)C[C@@H]2c3cccc4[nH]cc(c34)C[C@H]21.CS(=O)(=O)O` [PERGOLIDE MESYLATE], for which the “Bacterial Biotransformation” value in data set [1], in [2], in data set [3], in [4], in data set [5] and in [6] was “Compound NOT metabolized” throughout. Further, the “Bacterial Biotransformation” value in data set [7], in data set [8], in data set [9], in data set [10], in data set [11] and in data set [12] was “Compound NOT metabolized” throughout. For the same molecule, the “Bacterial Biotransformation” value in [13], in data set [14], in data set [15], in [16], in [17] and in data set [18] was “Compound NOT metabolized” each time. Moreover, the “Bacterial Biotransformation” value in data set [19] and in data set [20] was “Compound NOT metabolized” throughout.

For the molecule `CCOC(=O)C1=C[C@]2(CC)CCCN3CCc4c(n1c1ccccc41)[C@@H]32` [VINPOCETINE], the “Bacterial Biotransformation” value was “Compound metabolized” in data set [1]; “Compound metabolized” in [2]; “Compound metabolized” in [3]; “Compound metabolized” in [4]; “Compound metabolized” in data set [5]; “Compound NOT metabolized” in data set [6]. Also, the “Bacterial Biotransformation” value in [7] is reported as “Compound NOT metabolized”; in data set [8], “Compound NOT metabolized”; in data set [9], “Compound NOT metabolized”; in [10], “Compound metabolized”; in [11], “Compound NOT metabolized”; in [12], “Compound metabolized”. The “Bacterial Biotransformation” value in data set [13] was “Compound NOT metabolized”; in data set [14], “Compound metabolized”; in data set [15], “Compound metabolized”; in data set [16], “Compound NOT metabolized”; in data set [17] it was “Compound metabolized”; in data set [18] it was “Compound metabolized”. Further, the “Bacterial Biotransformation” value in data set [19] was “Compound metabolized”; in [20], “Compound NOT metabolized”.

As to `CCN(CC)C(=O)C1(c2ccccc2)CC1CN` (stereo not given), the “Bacterial Biotransformation” value in data set [1], in data set [2], in data set [3], in [4], in [5] and in [6] was “Compound NOT metabolized” each time. Moreover, the “Bacterial Biotransformation” value in data set [7], in data set [8], in [9], in [10], in data set [11] and in [12] was “Compound NOT metabolized” in each case. Besides, the “Bacterial Biotransformation” value in [13], in [14], in data set [15], in data set [16], in [17] and in [18] was “Compound NOT metabolized” in each case. Besides, the “Bacterial Biotransformation” value in data set [19] and in data set [20] was “Compound NOT metabolized” each time.
